Assay results from patent US9994547B2, “Heteroarylamide inhibitors of TBK1” (Takeda Pharmaceutical Company Limited, priority 2014, dated 2018).

target: Full length human TBK1 (Homo sapiens (Human), UniProt Q9UHD2); assay: Inhibition of TBK1 Enzyme (Example A); assay type: biochemical; conditions: -log(IC50), IC50 molar; 3 nM TBK1, 25 μM ATP, 60 min RT
In short: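 Full-length N-His human TBK1 from Sf9 baculovirus was tested with 11-point 2.5-fold dilutions (1% DMSO) in Hepes pH 7.4, MgCl2, EDTA, Brij, DTT. After 60 min RT and EDTA quench, microfluidic conversion was fitted and reported as pIC50.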

Chain of Full length human TBK1 (Q9UHD2 whole entry): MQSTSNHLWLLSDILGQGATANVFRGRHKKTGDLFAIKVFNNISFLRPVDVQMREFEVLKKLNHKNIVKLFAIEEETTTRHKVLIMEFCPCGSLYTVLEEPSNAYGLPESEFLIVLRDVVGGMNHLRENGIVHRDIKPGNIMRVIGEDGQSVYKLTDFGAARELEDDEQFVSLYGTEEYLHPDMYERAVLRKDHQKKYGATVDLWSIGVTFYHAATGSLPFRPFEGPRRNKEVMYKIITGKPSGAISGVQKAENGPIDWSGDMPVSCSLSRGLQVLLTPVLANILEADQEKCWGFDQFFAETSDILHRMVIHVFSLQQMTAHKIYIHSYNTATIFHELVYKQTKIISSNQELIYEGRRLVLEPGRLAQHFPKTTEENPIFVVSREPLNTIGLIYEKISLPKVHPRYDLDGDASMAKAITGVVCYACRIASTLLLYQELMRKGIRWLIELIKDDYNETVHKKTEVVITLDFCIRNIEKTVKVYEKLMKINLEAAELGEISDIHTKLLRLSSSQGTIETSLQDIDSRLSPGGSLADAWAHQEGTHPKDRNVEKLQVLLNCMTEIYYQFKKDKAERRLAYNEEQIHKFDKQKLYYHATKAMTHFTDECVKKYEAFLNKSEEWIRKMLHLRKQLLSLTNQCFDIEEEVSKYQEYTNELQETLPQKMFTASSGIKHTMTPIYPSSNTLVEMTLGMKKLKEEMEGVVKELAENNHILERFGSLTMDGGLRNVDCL

TBK1 Inhibition (pIC50)	SMILES
6.9	N#Cc1ncc(-c2cnc(NC(=O)C3CC3)cn2)cc1NCC(=O)N1CCOC[C@@H]1CF [Example 75, (R)-N-(5-(6-cyano-5-((2-(3-(fluoromethyl)morpholino)-2-oxoethyl)amino)pyridin-3-yl)pyrazin-2-yl)cyclopropanecarboxamide]
7.8	C[C@H](Nc1cc(-c2cnc(NC(=O)C3CC3)cn2)cnc1C#N)C(=O)N1CCOC[C@@H]1C#N [Example 81, N-(5-(6-cyano-5-(((S)-1-((S)-3-cyanomorpholino)-1-oxopropan-2-yl)amino)pyridin-3-yl)pyrazin-2-yl)cyclopropanecarboxamide]
7.0	C[C@@H](Nc1cc(-c2cnc(NC(=O)C3CC3)cn2)cnc1C#N)C(=O)N(C)CC(F)F [Example 83, (R)-N-(5-(6-cyano-5-((1-((2,2-difluoroethyl)(methyl)amino)-1-oxopropan-2-yl)amino)pyridin-3-yl)pyrazin-2-yl)cyclopropanecarboxamide]
7.2	C[C@H]1COCCN1C(=O)CNc1cc(-c2cnc(NC(=O)C3CC3)cn2)cnc1C#N [Example 84, (S)-N-(5-(6-cyano-5-((2-(3-methylmorpholino)-2-oxoethyl)amino)pyridin-3-yl)pyrazin-2-yl)cyclopropanecarboxamide]
7.6	C[C@H](Nc1cc(-c2cnc(NC(=O)C3CC3)cn2)cnc1C#N)C(=O)N(C)[C@H](C)C#N [Example 88, N-(5-(6-cyano-5-(((S)-1-(((R)-1-cyanoethyl)(methyl)amino)-1-oxopropan-2-yl)amino)pyridin-3-yl)pyrazin-2-yl)cyclopropanecarboxamide]
7.9	C[C@H](Nc1cc(-c2cnc(NC(=O)C3CC3)cn2)cnc1C#N)C(=O)N(C)[C@@H](C)C#N [Example 89, N-(5-(6-cyano-5-(((S)-1-(((S)-1-cyanoethyl)(methyl)amino)-1-oxopropan-2-yl)amino)pyridin-3-yl)pyrazin-2-yl)cyclopropanecarboxamide]
7.7	C[C@H](Nc1cc(-c2cnc(NC(=O)C3CC3)cn2)cnc1C#N)C(=O)N1CCOC[C@@H]1C [Example 91, N-(5-(6-cyano-5-(((S)-1-((S)-3-methylmorpholino)-1-oxopropan-2-yl)amino)pyridin-3-yl)pyrazin-2-yl)cyclopropanecarboxamide]
6.8	CC1CN(C(=O)CNc2cc(-c3cnc(NC(=O)C4CC4)cn3)cnc2C#N)CCO1 (stereo not drawn) [Example 103, N-(5-(6-cyano-5-((2-(2-methylmorpholino)-2-oxoethyl)amino)pyridin-3-yl)pyrazin-2-yl)cyclopropanecarboxamide]

More lines, now with the values behind:

SMILES	TBK1 Inhibition (pIC50)
CN(Cc1cnccn1)C(=O)CNc1cc(-c2cnc(NC(=O)C3CC3)cn2)cnc1C#N [Example 76, N-(5-(6-cyano-5-((2-(methyl(pyrazin-2-ylmethyl)amino)-2-oxoethyl)amino)pyridin-3-yl)pyrazin-2-yl)cyclopropanecarboxamide]	5.3
COCCN(CC(F)(F)F)C(=O)CNc1cc(-c2cnc(NC(=O)C3CC3)cn2)cnc1C#N [Example 77, N-(5-(6-cyano-5-((2-((2-methoxyethyl)(2,2,2-trifluoroethyl)amino)-2-oxoethyl)amino)pyridin-3-yl)pyrazin-2-yl)cyclopropanecarboxamide]	7.2
CN(C)C(=O)[C@@H](CC(F)F)Nc1cc(-c2cnc(NC(=O)C3CC3)cn2)cnc1C#N [Example 78, (R)-N-(5-(6-cyano-5-((1-(dimethylamino)-4,4-difluoro-1-oxobutan-2-yl)amino)pyridin-3-yl)pyrazin-2-yl)cyclopropanecarboxamide]	6.6
C[C@H](Nc1cc(-c2cnc(NC(=O)C3CC3)cn2)cnc1C#N)C(=O)N(CCO)CC(F)F [Example 79, (S)-N-(5-(6-cyano-5-((1-((2,2-difluoroethyl)(2-hydroxyethyl)amino)-1-oxopropan-2-yl)amino)pyridin-3-yl)pyrazin-2-yl)cyclopropanecarboxamide]	6.8
CN(C)C(=O)[C@H](CC(F)F)Nc1cc(-c2cnc(NC(=O)C3CC3)cn2)cnc1C#N [Example 80, (S)-N-(5-(6-cyano-5-((1-(dimethylamino)-4,4-difluoro-1-oxobutan-2-yl)amino)pyridin-3-yl)pyrazin-2-yl)cyclopropanecarboxamide]	7.4
COCCN(CC(F)F)C(=O)CNc1cc(-c2cnc(NC(=O)C3CC3)cn2)cnc1C#N [Example 82, N-(5-(6-cyano-5-((2-((2,2-difluoroethyl)(2-methoxyethyl)amino)-2-oxoethyl)amino)pyridin-3-yl)pyrazin-2-yl)cyclopropanecarboxamide]	7.8
CN(CCF)C(=O)C(CC(F)F)Nc1cc(-c2cnc(NC(=O)C3CC3)cn2)cnc1C#N (stereo not drawn) [Example 85, N-(5-(6-cyano-5-((4,4-difluoro-1-((2-fluoroethyl)(methyl)amino)-1-oxobutan-2-yl)amino)pyridin-3-yl)pyrazin-2-yl)cyclopropanecarboxamide]	7.1
CC1CC1C(=O)Nc1cnc(-c2cnc(C#N)c(N[C@@H](C)C(=O)N(C)CC(F)F)c2)cn1 (stereo partly drawn) [Example 86, N-(5-(6-cyano-5-(((S)-1-((2,2-difluoroethyl)(methyl)amino)-1-oxopropan-2-yl)amino)pyridin-3-yl)pyrazin-2-yl)-2-methylcyclopropanecarboxamide]	8.4
N#CCN(CCO)C(=O)CNc1cc(-c2cnc(NC(=O)C3CC3)cn2)cnc1C#N [Example 87, N-(5-(6-cyano-5-((2-((cyanomethyl)(2-hydroxyethyl)amino)-2-oxoethyl)amino)pyridin-3-yl)pyrazin-2-yl)cyclopropanecarboxamide]	7.2
N#Cc1ncc(-c2cnc(NC(=O)C3CC3)cn2)cc1NCC(=O)N(CCCO)CC(F)(F)F [Example 90, N-(5-(6-cyano-5-((2-((3-hydroxypropyl)(2,2,2-trifluoroethyl)amino)-2-oxoethyl)amino)pyridin-3-yl)pyrazin-2-yl)cyclopropanecarboxamide]	5.6
CCC(C#N)N(C)C(=O)CNc1cc(-c2cnc(NC(=O)C3CC3)cn2)cnc1C#N (stereo not drawn) [Example 92, N-(5-(6-cyano-5-((2-((1-cyanopropyl)(methyl)amino)-2-oxoethyl)amino)pyridin-3-yl)pyrazin-2-yl)cyclopropanecarboxamide]	6.2
C[C@H](Nc1cc(-c2cnc(NC(=O)C3CC3)cn2)cnc1C#N)C(=O)N(CC#N)CCO [Example 93, (S)-N-(5-(6-cyano-5-((1-((cyanomethyl)(2-hydroxyethyl)amino)-1-oxopropan-2-yl)amino)pyridin-3-yl)pyrazin-2-yl)cyclopropanecarboxamide]	6.8
N#Cc1ncc(-c2cnc(NC(=O)C3CC3)cn2)cc1NCC(=O)N1CCC1C(F)(F)F (stereo not drawn) [Example 94, N-(5-(6-cyano-5-((2-oxo-2-(2-(trifluoromethyl)azetidin-1-yl)ethyl)amino)pyridin-3-yl)pyrazin-2-yl)cyclopropanecarboxamide]	7.3
CN1CCN(C(=O)CNc2cc(-c3cnc(NC(=O)C4CC4)cn3)cnc2C#N)CC1 [Example 97, N-(5-(6-cyano-5-((2-(4-methylpiperazin-1-yl)-2-oxoethyl)amino)pyridin-3-yl)pyrazin-2-yl)cyclopropanecarboxamide]	5.5
COCCN1CCN(C(=O)CNc2cc(-c3cnc(NC(=O)C4CC4)cn3)cnc2C#N)CC1 [Example 98, N-(5-(6-cyano-5-((2-(4-(2-methoxyethyl)piperazin-1-yl)-2-oxoethyl)amino)pyridin-3-yl)pyrazin-2-yl)cyclopropanecarboxamide]	5.1
CC(=O)N1CCN(C(=O)CNc2cc(-c3cnc(NC(=O)C4CC4)cn3)cnc2C#N)CC1 [Example 99, N-(5-(5-((2-(4-acetylpiperazin-1-yl)-2-oxoethyl)amino)-6-cyanopyridin-3-yl)pyrazin-2-yl)cyclopropanecarboxamide]	6.0
N#Cc1ncc(-c2cnc(NC(=O)C3CC3)cn2)cc1NCC(=O)N1CCOC(C(F)(F)F)C1 (stereo not drawn) [Example 100, N-(5-(6-cyano-5-((2-oxo-2-(2-(trifluoromethyl)morpholino)ethyl)amino)pyridin-3-yl)pyrazin-2-yl)cyclopropanecarboxamide]	6.5
N#Cc1ncc(-c2cnc(NC(=O)C3CC3)cn2)cc1NCC(=O)N1CCC(C#N)C1 (stereo not drawn) [Example 102, N-(5-(6-cyano-5-((2-(3-cyanopyrrolidin-1-yl)-2-oxoethyl)amino)pyridin-3-yl)pyrazin-2-yl)cyclopropanecarboxamide]	6.6
N#Cc1ncc(-c2cnc(NC(=O)C3CC3)cn2)cc1NCC(=O)N1CC2(COC2)C1 [Example 104, N-(5-(6-cyano-5-((2-oxo-2-(2-oxa-6-azaspiro[3.3]heptan-6-yl)ethyl)amino)pyridin-3-yl)pyrazin-2-yl)cyclopropanecarboxamide]	5.4

same assay, conditions: -log(IC50), IC50 molar; 3 nM TBK1, 25 μM ATP, 60 min RT; read-out: TBK1 Inhibition (pIC50) (converted)

IC50 [nM]	SMILES
631	N#Cc1ncc(-c2cnc(NC(=O)C3CC3)cn2)cc1NCC(=O)N1CCO[C@@H]1C(F)(F)F [Example 95, (R)-N-(5-(6-cyano-5-((2-oxo-2-(2-(trifluoromethyl)oxazolidin-3-yl)ethyl)amino)pyridin-3-yl)pyrazin-2-yl)cyclopropanecarboxamide]
15.8	N#Cc1ncc(-c2cnc(NC(=O)C3CC3)cn2)cc1NCC(=O)N1CCO[C@H]1C(F)(F)F [Example 96, (S)-N-(5-(6-cyano-5-((2-oxo-2-(2-(trifluoromethyl)oxazolidin-3-yl)ethyl)amino)pyridin-3-yl)pyrazin-2-yl)cyclopropanecarboxamide]
200	N#Cc1ncc(-c2cnc(NC(=O)C3CC3)cn2)cc1NCC(=O)N1CCOC[C@@H]1C(F)(F)F [Example 101, (R)-N-(5-(6-cyano-5-((2-oxo-2-(3-(trifluoromethyl)morpholino)ethyl)amino)pyridin-3-yl)pyrazin-2-yl)cyclopropanecarboxamide]
